# Experiments:
# [1] = system: MRSA (NRS384 strain of USA300); experiment: MIC determination / killing of intracellular bacteria in mouse peritoneal macrophages; type: cell-based, Staphylococcus aureus
# USA300 = experiment: Intravenous infection model, pre-treatment in Balb/c mice; type: in vivo; details: antibodies 50 mg/Kg IV 30 minutes prior to infection; vancomycin 110 mg/Kg twice daily; day 4
# Protocol: Balb/c mice were given a single dose of vehicle control (PBS) or 50 mg/Kg of antibodies by intravenous injection 30 minutes prior to infection with 2×10^7 CFU of USA300. […] Control mice were given twice daily treatments with 110 mg/Kg of vancomycin by intraperitoneal injection (Vanco). All mice were sacrificed on day 4 post-infection, and the total number of surviving bacteria in kidneys (2 kidneys pooled) was determined by plating.
# 7 week old female mice were used for all in vivo experiments and infections were carried out by intravenous injection into the tail vein. A/J mice (Jackson Lab) were infected with a dose of 2×10^6 CFU. Balb/c mice (Charles River Laboratories, Hollister, Calif.) were infected with a dose of 2×10^7 CFU. For studies examining the role of competing human IgG (SCID IVIG model), CB17.SCID mice (Charles River Laboratories, Hollister, Calif.) were reconstituted with GammaGard S/D IGIV Immune Globulin (ASD Healthcare, Brooks KY) using a dosing regimen optimized to achieve constant serum levels of >10 mg/mL of human IgG. […] The total number of bacteria recovered per mouse (2 kidneys) was determined by plating serial dilutions of the tissue homogenate in PBS 0.05% Tween on Tryptic Soy Agar with 5% defibrinated sheep blood.
# MRSA (USA300) = experiment: Intravenous infection model in CB17.SCID mice reconstituted with human IgG (SCID:huIgG); type: in vivo
# Protocol: To confirm that the AAC would be effective in the presence of competing human antibodies in vivo, the in vivo infection model was modified to generate mice that express normal levels of human IgG in the serum. […] Four days after infection the bacterial load in the kidneys (FIG. 10C) was assessed.
# CB17.SCID mice were reconstituted with human IgG using a dosing regimen optimized to yield constant levels of at least 10 mg/mL of human IgG in serum.
# Efficacy of the AAC was compared with that of treatment with vancomycin, the current standard of care treatment for MRSA infections. […]
# CB17.SCID mice were reconstituted with human IgG using a dosing regimen optimized to yield constant levels of at least 10 mg/mL of human IgG in serum and infected with 2×10^7 CFU of USA300 by intravenous injection. […] The mice were sacrificed on day 4 post infection, and the total number of surviving bacteria in kidneys (2 kidneys pooled, FIG. 21) and heart (FIG. 22) was determined by plating.
# 7 week old female mice were used for all in vivo experiments and infections were carried out by intravenous injection into the tail vein. […] The total number of bacteria recovered per mouse (2 kidneys) was determined by plating serial dilutions of the tissue homogenate in PBS 0.05% Tween on Tryptic Soy Agar with 5% defibrinated sheep blood.
# MRSA [2] = details: TSB; vancomycin 2 and 20 μg/mL, rifampin 0.02 and 0.2 μg/mL
# [3] = system: MRSA (NRS384 strain of USA300); experiment: MIC determination for extracellular bacteria; type: cell-based; details: Staphylococcus aureus, read-out: Extracellular MRSA MIC
# Protocol: Dilutions of the antibiotic were made in quadruplicate in 96 well culture dishes. MRSA (NRS384 strain of USA300) was taken from an exponentially growing culture and diluted to 1×10^4 CFU/mL. Bacteria was cultured in the presence of antibiotic for 18-24 hours with shaking at 37° C. and bacterial growth was determined by reading the Optical Density (OD) at […]. The MIC was determined to be the dose of antibiotic that inhibited bacterial growth by >90%.
# MRSA [4] = experiment: Transfer of infection from peritoneal cells to MG63 osteoblasts in the presence of vancomycin; type: cell-based, Staphylococcus aureus; details: 5 μg/mL of vancomycin
# Protocol: 6-8 week old female A/J mice (JAX™ Mice, Jackson Laboratories) were infected with 1×10^8 CFU of the NRS384 strain of USA300 by peritoneal injection. The peritoneal wash was harvested 1 day post infection, and the infected peritoneal cells were treated with 50 μg/mL of lysostaphin diluted in Hepes Buffer supplemented with 0.1% BSA (HB buffer) for 30 minutes at 37° C. Peritoneal cells were then washed 2× in ice cold HB buffer. The peritoneal cells were diluted to 1×10^6 cells/mL in RPMI 1640 tissue culture media supplemented with 10 mM Hepes and 10% Fetal Calf Serum, and 5 μg/mL vancomycin. Free MRSA from the primary infection was stored overnight at 4° C. in Phosphate Buffered Saline Solution as a control for extracellular bacteria that were not subject to neutrophil killing.
# MG63 osteoblast cell line was obtained from ATCC (CRL-1427) and maintained in RPMI 1640 tissue culture media supplemented with 10 mM Hepes and 10% Fetal Calf Serum (RPMI-10). […] The actual titer for all infections was determined by plating serial dilutions of the bacteria on Tryptic Soy Agar with 5% defibrinated sheep blood.
# To generate a pool of intracellular S. aureus, A/J mice were infected with MRSA and infected peritoneal cells were taken 1 day post infection. […] The total number of surviving intracellular bacteria in each well was determined by plating cell lysates on agar plates. […]
smiles,measurement,setting,value
CN[C@H](CC(C)C)C(=O)N[C@H]1C(=O)N[C@@H](CC(N)=O)C(=O)N[C@H]2C(=O)N[C@H]3C(=O)N[C@H](C(=O)N[C@H](C(=O)O)c4cc(O)cc(O)c4-c4cc3ccc4O)[C@H](O)c3ccc(c(Cl)c3)Oc3cc2cc(c3O[C@@H]2O[C@H](CO)[C@@H](O)[C@H](O)[C@H]2O[C@H]2C[C@](C)(N)[C@H](O)[C@H](C)O2)Oc2ccc(cc2Cl)[C@H]1O [Vancomycin],MIC,"[1]; Staphylococcus aureus, 24 h, MRSA inside mouse peritoneal macrophages, […]",> 100 µg/mL
same,killing of intracellular MRSA sequestered inside macrophages,[1]; doses including clinically achieveable serum levels,failed to kill
same,effect of pre-treatment on bacterial loads in kidneys,USA300,cleared the infection in all of the mice tested
same,efficacy in SCID:huIgG mice (kidney bacteria day 4),"MRSA (USA300); AAC single dose 50 mg/Kg day 1, vancomycin 100 mg/Kg twice daily",failed to clear the infection
same,reduction of bacterial loads,"MRSA (USA300); twice-daily 100 mg/Kg, initiated more than 1 day post infection",about 50 fold
same,bacteria remaining viable during the first two hours of treatment,MRSA [2],90%
same,loss in viable bacteria by 5 hours,MRSA [2],100 fold
same,MIC,[3],1 µg/mL
same,intracellular bacteria recovered from MG63 wells 1 day after infection,MRSA [4]; infected with 3×10^4 intracellular bacteria,"8,750 intracellular bacteria"
same,intracellular bacteria recovered from MG63 wells 1 day post infection,MRSA [4]; infected with a similar dose of free MRSA,375 intracellular bacteria

# From patent publication US9884126B2, “Anti-wall teichoic antibodies and conjugates” (priority 2013, dated 2018)
